Laboratory results published in ChEMBL document CHEMBL1149955, “The discovery and synthesis of 2-biphenylcarbapenems active against methicillin resistant staphylococci” (1995).
Values after ≈ are worked out from the molar mass of the structure shown.

How the values were obtained:
Format in all cases: functional
Staphylococcus sp. [1] = test: Compound was evaluated for anti-methicillin-resistant activity against methicillin-resistant coagulase-negative Staphylococci CL 171
Staphylococcus sp. [2] = test: Compound was evaluated for anti-methicillin-resistant activity against methicillin-resistant coagulase-negative Staphylococci CL 546
Staphylococcus sp. [3] = test: Compound was evaluated for anti-methicillin-resistant activity against methicillin-resistant coagulase-negative Staphylococci CL 227
Staphylococcus aureus [4] = test: Compound was evaluated for anti-methicillin-resistant activity against methicillin-resistant Staphylococcus aureus
Staphylococcus sp. [5] = test: Compound was evaluated for anti-methicillin-resistant activity against methicillin-resistant coagulase-negative Staphylococci CL 202
Staphylococcus sp. [6] = test: Compound was evaluated for anti-methicillin-resistant activity against methicillin-resistant coagulase-negative Staphylococci
Escherichia coli [7] = test: Relative potency was calculated against Escherichia coli (5) by dividing the species index of Imipenem by the species index of the test compound
Enterobacter sp. [8] = test: Relative potency was calculated against Enterobacter species. (6) by dividing the species index of Imipenem by the species index of the test compound
[9] = molecular target: T1, Dipeptidase 1 (Sus scrofa) (UniProt P22412); test: DHP-I susceptibility relative to imipenem
T1 sequence (whole entry): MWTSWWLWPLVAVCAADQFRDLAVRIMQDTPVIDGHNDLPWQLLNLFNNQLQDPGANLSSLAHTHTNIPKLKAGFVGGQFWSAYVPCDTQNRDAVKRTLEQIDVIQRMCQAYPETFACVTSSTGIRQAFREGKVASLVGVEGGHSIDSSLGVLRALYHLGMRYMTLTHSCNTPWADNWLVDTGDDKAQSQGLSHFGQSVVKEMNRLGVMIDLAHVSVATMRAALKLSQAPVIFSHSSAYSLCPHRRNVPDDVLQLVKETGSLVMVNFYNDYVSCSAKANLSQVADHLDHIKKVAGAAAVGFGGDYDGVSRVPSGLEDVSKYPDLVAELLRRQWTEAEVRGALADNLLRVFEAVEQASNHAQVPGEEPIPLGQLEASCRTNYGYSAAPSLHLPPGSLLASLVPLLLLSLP

Proteus [10] = test: Relative potency was calculated against Proteus species. (5) by dividing the species index of Imipenem by the species index of the test compound
Enterococcus sp. [11] = test: Relative potency was calculated against Enterococcus species. (3) by dividing the species index of Imipenem by the species index of the test compound
Staphylococcus aureus [12] = test: Relative potency was calculated against Methicillin-sensitive Staphylococcus aureus (4) by dividing the species index of Imipenem by the species index of the test compound
Pseudomonas aeruginosa [13] = test: Relative potency was calculated against Pseudomonas aeruginosa (5 ) by dividing the species index of Imipenem by the species index of the test compound
Staphylococcus aureus [14] = test: Relative potency was calculated against Methicillin-resistant Staphylococcus aureus (1) by dividing the species index of Imipenem by the species index of the test compound
Serratia [15] = test: Relative potency was calculated against Serratia species. (2) by dividing the species index of Imipenem by the species index of the test compound
Klebsiella sp. [16] = test: Relative potency was calculated against Klebsiella species. (5) by dividing the species index of Imipenem by the species index of the test compound
Staphylococcus aureus [17] = test: Compound was evaluated for anti-methicillin-resistant activity against methicillin-resistant Staphylococcus aureus CL 1989
Staphylococcus aureus [18] = test: Compound was evaluated for anti-methicillin-resistant activity against methicillin-resistant Staphylococcus aureus CL 1395
Staphylococcus aureus [19] = test: Compound was evaluated for anti-methicillin-resistant activity against methicillin-resistant Staphylococcus aureus CL 1990
Staphylococcus aureus [20] = test: Compound was evaluated for anti-methicillin-resistant activity against methicillin-resistant Staphylococcus aureus CL 1983
Staphylococcus aureus [21] = test: Compound was evaluated for anti-methicillin-resistant activity against methicillin-resistant Staphylococcus aureus CL 1991
Staphylococcus aureus [22] = test: Compound was evaluated for anti-methicillin-resistant activity against methicillin-resistant Staphylococcus aureus CL 714
Staphylococcus aureus [23] = test: Compound was evaluated for anti-methicillin-resistant activity against methicillin-resistant Staphylococcus aureus CL 3043
Staphylococcus aureus [24] = test: Compound was evaluated for anti-methicillin-resistant activity against methicillin-resistant Staphylococcus aureus CL 3031
Staphylococcus aureus [25] = test: Compound was evaluated for anti-methicillin-resistant activity against methicillin-resistant Staphylococcus aureus CL 3025
Staphylococcus aureus [26] = test: Compound was evaluated for anti-methicillin-resistant activity against methicillin-resistant Staphylococcus aureus CL 792
Staphylococcus aureus [27] = test: Compound was evaluated for anti-methicillin-resistant activity against methicillin-resistant Staphylococcus aureus CL 1985
Staphylococcus aureus [28] = test: Compound was evaluated for anti-methicillin-resistant activity against methicillin-resistant Staphylococcus aureus CL 3033
Pseudomonas aeruginosa [29] = test: Antibacterial activity against Pseudomonas aeruginosa (5 )
Staphylococcus aureus [30] = test: Antibacterial activity against Methicillin-sensitive Staphylococcus aureus (4)
Enterobacter sp. [31] = test: Antibacterial activity against Enterobacter species. (6)
Enterococcus sp. [32] = test: Antibacterial activity against Enterococcus species. (3)
Serratia [33] = test: Antibacterial activity against Serratia species. (2)
Proteus [34] = test: Antibacterial activity against Proteus species. (5)
Staphylococcus aureus [35] = test: Antibacterial activity against Methicillin-resistant Staphylococcus aureus (1)
Klebsiella sp. [36] = test: Antibacterial activity against Klebsiella species. (5)
Escherichia coli [37] = test: Antibacterial activity against Escherichia coli (5)

Structure (SMILES)	MIC (Staphylococcus sp. [1]) [µg/mL]	MIC (Staphylococcus sp. [2]) [µg/mL]	MIC (Staphylococcus sp. [3]) [µg/mL]	MIC50 (Staphylococcus aureus [4]) [µg/mL]	MIC90 (Staphylococcus aureus [4]) [µg/mL]	MIC (Staphylococcus sp. [5]) [µg/mL]	MIC50 (Staphylococcus sp. [6]) [µg/mL]	MIC90 (Staphylococcus sp. [6]) [µg/mL]	Relative potency (Escherichia coli [7])	Relative potency (Enterobacter sp. [8])	Susceptibility [9]	Relative potency (Proteus [10])	Relative potency (Enterococcus sp. [11])	Relative potency (Staphylococcus aureus [12])	Relative potency (Pseudomonas aeruginosa [13])	Relative potency (Staphylococcus aureus [14])	Relative potency (Serratia [15])	Relative potency (Klebsiella sp. [16])	MIC (Staphylococcus aureus [17]) [µg/mL]	MIC (Staphylococcus aureus [18]) [µg/mL]	also measured
CN[C@H](CC(C)C)C(=O)N[C@H]1C(=O)N[C@@H](CC(N)=O)C(=O)N[C@H]2C(=O)N[C@H]3C(=O)N[C@H](C(=O)N[C@H](C(=O)O)c4cc(O)cc(O)c4-c4cc3ccc4O)[C@H](O)c3ccc(c(Cl)c3)Oc3cc2cc(c3O[C@@H]2O[C@H](CO)[C@@H](O)[C@H](O)[C@H]2O[C@H]2C[C@](C)(N)[C@H](O)[C@H](C)O2)Oc2ccc(cc2Cl)[C@H]1O [VANCOMYCIN]	8 (≈ 5.52 µM)	4 (≈ 2.76 µM)	2 (≈ 1.38 µM)	1 (≈ 0.69 µM)	2 (≈ 1.38 µM)	8 (≈ 5.52 µM)	4 (≈ 2.76 µM)	8 (≈ 5.52 µM)	–	–	–	–	–	–	–	–	–	–	–	–	–
C[C@@H](O)[C@H]1C(=O)N2C(C(=O)[O-])=C(c3cccc(C[n+]4ccccc4N)c3)C[C@H]12	–	–	–	–	–	–	–	–	1.7	3	0.11	4.2	12.9	0.5	0.02	2	4.4	1.1	–	–	–
C[C@@H](O)[C@H]1C(=O)N2C(C(=O)[O-])=C(c3ccc(-c4ccc(C[n+]5ccc(N(C)C)cc5)cc4)cc3)C[C@H]12	–	–	–	–	–	–	–	–	0.31	0.12	0.46	0.44	2	0.16	0.013	3.9	0.26	0.04	–	–	–
COc1cccc(OC)c1C(=O)N[C@@H]1C(=O)N2[C@@H]1SC(C)(C)[C@@H]2C(=O)[O-].[Na+]	> 512	> 512	512	128	512	> 512	> 512	> 512	–	–	–	–	–	–	–	–	–	–	64	512	MIC (Staphylococcus aureus [19]): 128 µg/mL; MIC (Staphylococcus aureus [20]): 64 µg/mL; MIC (Staphylococcus aureus [21]): 64 µg/mL; MIC (Staphylococcus aureus [22]): 512 µg/mL; MIC (Staphylococcus aureus [23]): 128 µg/mL; MIC (Staphylococcus aureus [24]): 256 µg/mL; MIC (Staphylococcus aureus [25]): 64 µg/mL; MIC (Staphylococcus aureus [26]): 512 µg/mL; MIC (Staphylococcus aureus [27]): 64 µg/mL; MIC (Staphylococcus aureus [28]): > 512 µg/mL
C[C@@H](O)[C@H]1C(=O)N2C(C(=O)[O-])=C(c3cccc(-c4ccc(C[n+]5ccccc5N)cc4)c3)C[C@H]12	4 (≈ 8.78 µM)	2 (≈ 4.39 µM)	2 (≈ 4.39 µM)	1 (≈ 2.2 µM)	2 (≈ 4.39 µM)	2 (≈ 4.39 µM)	2 (≈ 4.39 µM)	4 (≈ 8.78 µM)	0.11	0.04	0.04	0.38	6.2	0.43	0.01	154	0.11	0.04	0.5 (≈ 1.1 µM)	2 (≈ 4.39 µM)	MIC (Staphylococcus aureus [19]): 1 µg/mL (≈ 2.2 µM); MIC (Staphylococcus aureus [20]): 0.5 µg/mL (≈ 1.1 µM); MIC (Staphylococcus aureus [21]): 1 µg/mL (≈ 2.2 µM); MIC (Staphylococcus aureus [22]): 2 µg/mL (≈ 4.39 µM); MIC (Staphylococcus aureus [23]): 1 µg/mL (≈ 2.2 µM); MIC (Staphylococcus aureus [24]): 2 µg/mL (≈ 4.39 µM); MIC (Staphylococcus aureus [25]): 1 µg/mL (≈ 2.2 µM); MIC (Staphylococcus aureus [26]): 1 µg/mL (≈ 2.2 µM); MIC (Staphylococcus aureus [27]): 1 µg/mL (≈ 2.2 µM); MIC (Staphylococcus aureus [28]): 2 µg/mL (≈ 4.39 µM)
C[C@@H](O)[C@H]1C(=O)N2C(C(=O)O)=C(SCCNC=N)C[C@H]12 [IMIPENEM ANHYDROUS]	> 128	64 (≈ 214 µM)	64 (≈ 214 µM)	4 (≈ 13.4 µM)	64 (≈ 214 µM)	> 128	64 (≈ 214 µM)	> 128	–	–	1	–	–	–	–	–	–	–	2 (≈ 6.68 µM)	64 (≈ 214 µM)	MIC (Pseudomonas aeruginosa [29]): 0.36 µg/mL (≈ 1.2 µM); MIC (Staphylococcus aureus [30]): 0.01 µg/mL (≈ 0.0334 µM); MIC (Enterobacter sp. [31]): 0.18 µg/mL (≈ 0.601 µM); MIC (Enterococcus sp. [32]): 1.8 µg/mL (≈ 6.01 µM); MIC (Serratia [33]): 0.29 µg/mL (≈ 0.969 µM); MIC (Proteus [34]): 0.78 µg/mL (≈ 2.61 µM); MIC (Staphylococcus aureus [19]): 4 µg/mL (≈ 13.4 µM); MIC (Staphylococcus aureus [35]): 33 µg/mL (≈ 110 µM); MIC (Staphylococcus aureus [20]): 1 µg/mL (≈ 3.34 µM); MIC (Staphylococcus aureus [21]): 1 µg/mL (≈ 3.34 µM); MIC (Staphylococcus aureus [22]): 32 µg/mL (≈ 107 µM); MIC (Staphylococcus aureus [23]): 16 µg/mL (≈ 53.4 µM); MIC (Staphylococcus aureus [24]): 32 µg/mL (≈ 107 µM); MIC (Staphylococcus aureus [25]): 2 µg/mL (≈ 6.68 µM); MIC (Staphylococcus aureus [26]): 32 µg/mL (≈ 107 µM); MIC (Klebsiella sp. [36]): 0.29 µg/mL (≈ 0.969 µM); MIC (Escherichia coli [37]): 0.19 µg/mL (≈ 0.635 µM); MIC (Staphylococcus aureus [27]): 1 µg/mL (≈ 3.34 µM); MIC (Staphylococcus aureus [28]): 128 µg/mL (≈ 428 µM)
